Assay [1] in a line: cytotoxicity toward NIH3T3 fibroblasts, dose response, counter-screen, cell-based, ATP luminescence, mouse fibroblasts (AID 2010).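 Note: cells exposed to compound for about 90 hours before reading.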 It counts as functional. For orientation: A counterscreen serves to expose hits that act by an unwanted route or on another target.
A short description of assay [2]: microbe, parasite or virus in culture. The settings on record: Mycobacterium tuberculosis. It counts as functional.
The target of assay [3] is T1, High affinity choline transporter 1 (Homo sapiens, UniProt Q9GZV3).
T1 sequence (Q9GZV3 whole entry): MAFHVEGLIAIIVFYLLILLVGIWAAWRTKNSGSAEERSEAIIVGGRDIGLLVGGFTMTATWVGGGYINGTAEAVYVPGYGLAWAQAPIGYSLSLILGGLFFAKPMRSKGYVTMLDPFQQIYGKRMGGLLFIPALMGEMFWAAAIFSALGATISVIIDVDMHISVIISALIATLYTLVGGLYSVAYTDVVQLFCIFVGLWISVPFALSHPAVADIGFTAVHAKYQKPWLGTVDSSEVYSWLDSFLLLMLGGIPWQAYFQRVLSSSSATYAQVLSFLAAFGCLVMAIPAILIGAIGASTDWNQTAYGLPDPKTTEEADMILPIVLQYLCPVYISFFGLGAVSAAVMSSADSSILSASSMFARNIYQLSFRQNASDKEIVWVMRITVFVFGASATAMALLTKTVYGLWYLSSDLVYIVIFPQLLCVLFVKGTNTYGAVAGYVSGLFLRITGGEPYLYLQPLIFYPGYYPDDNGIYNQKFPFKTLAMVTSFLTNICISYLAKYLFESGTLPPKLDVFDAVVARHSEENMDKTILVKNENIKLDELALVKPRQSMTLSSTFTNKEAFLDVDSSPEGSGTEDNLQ
Nature of the assay: CHT activators, dose response, cell-based, 10-point CRC, membrane potential dye (AID 602376). It counts as functional.

Assay [4] is described as follows: inhibitors of intracellular T. cruzi replication, confirmation, NIH3T3 host cells, beta-gal luminescence (AID 2044).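 Note: intracellular parasites grown in NIH/3T3 mouse fibroblasts as host cells; luminescent beta-galactosidase reporter signal from transgenic T. cruzi replicating inside host cells; inhibitors lower the luminescence signal.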 It counts as functional, cell-based.
The nature of assay [5]: nonselective inhibitors of cellular cAMP signaling, dose response, counter-screen for MC4R biased antagonist project, cell-based, TR-FRET cAMP detection (AID 602305).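 Note: U2OS cells stimulated with forskolin near its EC80 as the cAMP inducer; potency is for inhibition of forskolin-stimulated cAMP signaling.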 It counts as functional.
Another assay concerns the target Melanocortin receptor 4 (Homo sapiens, UniProt P32245). Nature of the assay: MC4R antagonist potency on cAMP, dose response, cell-based, TR-FRET, biased antagonists (AID 602298).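 Note: antagonist potency against agonist-stimulated cAMP production.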 It counts as functional. In general terms: In TR-FRET formats the signal depends on donor and acceptor labels being close together.
The nature of assay [6]: Late-stage results from the probe development effort to identify antagonists of the G-protein coupled receptor 7 (GPR7): luminescence-based cell-based dose response counterscreen assay to determine cytotoxicity of antagonist compounds Set 3. It counts as functional.
Assay [7] addresses G protein-coupled receptor kinase 5 (Homo sapiens, UniProt P34947). Nature of the assay: Navigating the Kinome. Panel member name: GPRK5. It counts as functional.
In assay [8] the target is Protein kinase C gamma type (Homo sapiens, UniProt P05129). It counts as functional.
The target of assay [9] is MAP kinase-activated protein kinase 3 (Homo sapiens, UniProt Q16644). It counts as functional.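 Note: value comes from a kinome-wide profiling panel in which MAPKAPK3 is one of the panel members.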
Sequence of MAP kinase-activated protein kinase 3 (Q16644 whole entry): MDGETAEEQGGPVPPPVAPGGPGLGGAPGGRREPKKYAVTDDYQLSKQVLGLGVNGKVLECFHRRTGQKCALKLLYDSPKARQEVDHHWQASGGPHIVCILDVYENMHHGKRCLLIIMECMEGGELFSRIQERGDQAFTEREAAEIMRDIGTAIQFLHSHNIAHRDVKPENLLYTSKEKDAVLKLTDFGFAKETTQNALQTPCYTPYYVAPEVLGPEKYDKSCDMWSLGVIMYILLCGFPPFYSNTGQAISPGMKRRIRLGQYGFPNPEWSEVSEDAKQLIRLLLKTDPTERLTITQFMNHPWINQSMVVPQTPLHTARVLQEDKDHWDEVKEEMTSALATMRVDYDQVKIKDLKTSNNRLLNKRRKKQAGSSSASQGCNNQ
Assay [10] has as its target Protein kinase C zeta type (Homo sapiens, UniProt Q05513). It counts as functional.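 Note: measured as one member of a broad kinase profiling panel.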
The target in assay [11] is Neuropeptides B/W receptor type 1 (Homo sapiens, UniProt P48145). Nature of the assay: GPR7 antagonist potency, late-stage follow-up, cell-based, fluorescence, dose response, set 5 (AID 588566). It counts as functional.
Sequence of Neuropeptides B/W receptor type 1 (P48145 whole entry): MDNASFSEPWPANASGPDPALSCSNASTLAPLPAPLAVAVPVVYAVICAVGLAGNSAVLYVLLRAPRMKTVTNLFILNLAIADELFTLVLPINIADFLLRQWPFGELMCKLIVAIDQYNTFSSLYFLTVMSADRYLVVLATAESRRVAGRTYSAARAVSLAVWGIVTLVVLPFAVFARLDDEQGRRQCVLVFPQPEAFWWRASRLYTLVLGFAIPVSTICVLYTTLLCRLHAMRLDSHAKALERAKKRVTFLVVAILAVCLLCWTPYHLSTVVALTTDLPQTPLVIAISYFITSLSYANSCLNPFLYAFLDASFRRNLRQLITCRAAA
For assay [12], the target named is Melanin-concentrating hormone receptor 1 (Homo sapiens, UniProt Q99705). Nature of the assay: Late-stage fluorescence-based counterscreen for antagonists of the G-protein coupled receptor 7 (GPR7): cell-based dose response assay to identify antagonists of the melanin-concentrating hormone receptor 1 (MCHR1) Set 5. It counts as functional.
Sequence of Melanin-concentrating hormone receptor 1 (Q99705 whole entry): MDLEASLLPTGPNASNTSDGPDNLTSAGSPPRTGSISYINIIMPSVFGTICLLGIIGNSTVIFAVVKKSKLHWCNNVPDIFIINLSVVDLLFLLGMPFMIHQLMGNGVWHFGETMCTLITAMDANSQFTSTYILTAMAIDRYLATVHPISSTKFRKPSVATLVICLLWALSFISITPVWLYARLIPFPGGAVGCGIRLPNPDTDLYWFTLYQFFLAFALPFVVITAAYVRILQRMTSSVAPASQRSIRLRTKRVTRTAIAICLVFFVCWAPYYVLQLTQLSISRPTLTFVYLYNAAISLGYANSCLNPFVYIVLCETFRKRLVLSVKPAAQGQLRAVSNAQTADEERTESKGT

Active and inactive are the calls of the source. Some results are limits rather than exact numbers.

A word on the EC50: it is the concentration at which the effect is half-maximal. Usually IC50 stands for the midpoint of a concentration-inhibition curve. In general, Ki refers to the dissociation constant of the complex between target and ligand, obtained from inhibition or displacement.

Sequence of Melanocortin receptor 4 (P32245 whole entry): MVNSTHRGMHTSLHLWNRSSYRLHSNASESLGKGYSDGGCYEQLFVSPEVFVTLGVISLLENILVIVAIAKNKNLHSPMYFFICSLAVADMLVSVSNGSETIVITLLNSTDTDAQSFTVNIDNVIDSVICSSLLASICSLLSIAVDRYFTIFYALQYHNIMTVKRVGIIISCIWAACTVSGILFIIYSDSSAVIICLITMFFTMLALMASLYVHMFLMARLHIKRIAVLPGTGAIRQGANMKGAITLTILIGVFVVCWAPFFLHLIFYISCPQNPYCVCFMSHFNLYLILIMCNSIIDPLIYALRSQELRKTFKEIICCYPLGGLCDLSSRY
Sequence of G protein-coupled receptor kinase 5 (P34947 whole entry): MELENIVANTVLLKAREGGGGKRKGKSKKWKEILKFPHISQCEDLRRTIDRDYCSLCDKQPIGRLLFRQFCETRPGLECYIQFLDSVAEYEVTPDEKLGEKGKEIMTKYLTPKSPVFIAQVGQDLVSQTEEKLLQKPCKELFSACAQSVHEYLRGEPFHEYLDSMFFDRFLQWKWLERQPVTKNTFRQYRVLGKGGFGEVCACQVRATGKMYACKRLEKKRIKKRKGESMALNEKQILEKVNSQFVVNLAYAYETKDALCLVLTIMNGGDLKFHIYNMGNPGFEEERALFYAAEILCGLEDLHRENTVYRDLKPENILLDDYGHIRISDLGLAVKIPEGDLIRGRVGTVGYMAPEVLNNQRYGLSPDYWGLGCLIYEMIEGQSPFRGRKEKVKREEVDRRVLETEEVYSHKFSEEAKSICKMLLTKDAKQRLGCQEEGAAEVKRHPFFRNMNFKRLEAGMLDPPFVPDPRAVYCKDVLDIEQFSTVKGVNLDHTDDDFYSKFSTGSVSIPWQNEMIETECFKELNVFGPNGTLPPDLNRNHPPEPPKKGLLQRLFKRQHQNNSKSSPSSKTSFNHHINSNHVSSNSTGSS
Sequence of Protein kinase C zeta type (Q05513 whole entry): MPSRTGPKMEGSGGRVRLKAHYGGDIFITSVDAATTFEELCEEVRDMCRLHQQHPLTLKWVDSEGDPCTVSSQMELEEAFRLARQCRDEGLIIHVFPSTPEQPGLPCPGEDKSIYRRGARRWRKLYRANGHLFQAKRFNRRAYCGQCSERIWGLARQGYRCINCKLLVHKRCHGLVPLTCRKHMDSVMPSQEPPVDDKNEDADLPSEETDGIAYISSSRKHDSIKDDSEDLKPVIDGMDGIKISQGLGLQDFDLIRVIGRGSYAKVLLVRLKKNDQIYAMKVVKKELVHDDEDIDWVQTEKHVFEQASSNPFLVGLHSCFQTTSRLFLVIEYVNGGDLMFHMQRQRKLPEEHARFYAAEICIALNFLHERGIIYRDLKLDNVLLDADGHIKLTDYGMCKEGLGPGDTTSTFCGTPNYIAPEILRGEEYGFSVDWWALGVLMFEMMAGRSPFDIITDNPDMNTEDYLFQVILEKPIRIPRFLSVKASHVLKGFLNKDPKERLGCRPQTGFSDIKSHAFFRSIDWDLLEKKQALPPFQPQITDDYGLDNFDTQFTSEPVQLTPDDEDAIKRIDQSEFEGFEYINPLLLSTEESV

With `Cc1ccc(-n2c(C)cc(/C=N/NC(N)=S)c2C)cc1`, the values for the EC50 in [1], in assay [3] and in [4] were > 60 µM (inconclusive), 9.06 µM (active) and 0.315 µM (active), respectively. Moreover, the CC50 in assay [2] was > 40 µM (active).
In the case of `CC(=O)Oc1ccc2nc(-c3ccco3)oc(=O)c2c1`, the IC50 (in [5]; at Melanocortin receptor 4) was > 64.6 µM (inactive) throughout.
As for `COc1ccc(Oc2c(Cl)cnn(C3c4ccccc4-c4ccccc43)c2=O)cc1`, the CC50 in assay [6] was > 20 µM (inactive).
As for `CCN(CCO)CCCOc1ccc2c(Nc3cc(CC(=O)Nc4cccc(F)c4)[nH]n3)ncnc2c1` [DEFOSBARASERTIB], the Ki in assay [7] is > 3.98 µM (inactive); in [8], > 7.94 µM (inactive); in assay [9] it was > 10 µM (inactive); in [10], > 7.94 µM (inactive).
As to `CS(=O)(=O)c1ccc(Oc2c(Cl)cnn(Cc3cccc4ccccc34)c2=O)cc1`, the IC50 in assay [11] is 1.13 µM (active); in assay [12], 2.46 µM (active).

Values taken from ChEMBL document CHEMBL1201862, “PubChem BioAssay data set” (2004).
